Results as given in US20060037085A1, “Animal model for fetal alcohol syndrome and methods of treatment” (priority 2004, published 2006).
Where two headings read alike, the source gives them in different places. Marks after values point to notes of the source that are not given here.

What was measured:
[1] = test system: Pax6, Otx2, Sox2, Sox3, NCAM, Vent1; assay: RT-PCR of neural markers (animal caps or embryos); type: cell-based, Xenopus laevis
Source text: RT-PCR Animal caps were dissected from embryos at stage 8.5 and cultured in 67% Leibovitz's L-15 medium, pH 7.5 in the presence or absence of varied concentration of alcohol until stage 22. Total RNA was extracted from cultured animal caps with Trizol reagent (Invitrogen). Primer sets and PCR conditions for NCAM and Pax6 have been described in our previous reports (Peng, Neurobiol. Dis., 2004; Peng, J. Mol. Biol., 2004). PCR products were subject to electrophoresis on TBE gel and visualized by ethidium bromide staining.
Animal cap explant assay. […] Total RNA was extracted from animal caps or whole embryos using TRIZOL reagent (Invitrogen). The total RNA was reverse transcribed using the Superscript system (Invitrogen), and the first strand cDNA of the target gene amplified by PCR.
The Xenopus animal cap is composed of pluripotent cells that can be induced to form neural, mesodermal, or epidermal tissue, and is a useful tissue to assess the activity of various factors on neural development. Animal caps were treated with varied concentrations of alcohol as indicated.

Xenopus laevis embryos = details: for Alive / dead: 15 embryos; for Body length / Eye distance: mean ± SD
Method: Morphological measurements of microcephaly and growth retardation.
Vitamin C treatment. Embryos at stage 13 (initial neural plate stage) were collected and divided into groups, each containing 15-20 embryos and incubated in a plastic petri dish containing MMR medium as stated above. Vitamin C, having a concentration of 100 μM, was added either concomitantly, 2 hours before, or 2 hours after the initiation of a 12-hour alcohol exposure. The tadpoles were fixed and measurements were made as stated above.

[2] = test system: Xenopus laevis tadpole brain; assay: Histological analysis of brain injury (coronal brain sections of tadpoles)
Source text: Histological analysis of brain injury. Embryos were fixed in 2% paraformaldehyde, dehydrated, embedded in paraffin. The embryos were sectioned coronally through the head and stained with hematoxylin and eosin.
The EF-1α transcript was detected as an internal control for equal RNA load.

[3] = test system: alcohol-induced ROS production; assay: ROS measurement (hydrogen peroxide level in embryos); type: in vivo, Xenopus laevis; details: vitamin C pretreatment 2 hours before 0.6% ethanol
Method: (A) Embryos were pretreated with or without vitamin C two hours before alcohol treatment (0.6%, 12 h, from stage 13 to 22). The embryos were harvested at stage 22 and the hydrogen peroxide level measured by the colorimetric quantitation of hydrogen peroxide method (total hydroperoxides), according to the protocols provided by the manufacturer (BIOXYTECH H202-560 kit, OXIS International, Inc., USA); (B) The NF-κB mediated transcriptional activity was measured using NF-κB luciferase reporter plasmid (pLuc-NF-κB) containing IL-6 promoter region with four repeats of NF-κB binding sites.
ROS measurement. […] At the end of the experiment, embryos were harvested and total ROS content was determined by the calorimetric quantitation of hydrogen peroxide method (total hydroperoxides), following protocols provided by the manufacturer (BIOXYTECH H202-560 kit, OXIS International, Inc. USA).

rats = details: pregnant rats treated with folic acid concomitantly to ethanol administration; cited from earlier work
[4] = test system: embryonic hippocampal cultures; details: against 400-2400 mg/dl of ethanol treatment; cited from earlier work
[5] = 100 μM VitC 2 hours after start of 12-hour 0.6% EtOH (Post-VitC)
[6] = 100 μM VitC 2 hours before 12-hour 0.6% EtOH (Pre-VitC)
[7] = 100 μM VitC concomitantly with 12-hour 0.6% EtOH

OO [H2O2, hydrogen peroxide]
expression of Pax6, Otx2, Sox2, Sox3, and NCAM ([1]; animal caps treated with 100 M of H2O2 instead of alcohol): reduced the expression

O=C1O[C@H]([C@@H](O)CO)C(O)=C1O [VitC, ascorbic acid]
Alive (Xenopus laevis embryos; [5]): 14
dead (Xenopus laevis embryos; [5]): 1
Body length (Xenopus laevis embryos; [5]): 9.60 ± 013^b mm
Eye distance (Xenopus laevis embryos; [5]): 1.82 ± 004^b mm
Alive (Xenopus laevis embryos; [6]): 14
dead (Xenopus laevis embryos; [6]): 1
Body length (Xenopus laevis embryos; [6]): 11.88 ± 006^a mm
Eye distance (Xenopus laevis embryos; [6]): 2.13 ± 002^a mm
Alive (Xenopus laevis embryos; [7]): 14
dead (Xenopus laevis embryos; [7]): 1
Body length (Xenopus laevis embryos; [7]): 10.19 ± 014^a mm
Eye distance (Xenopus laevis embryos; [7]): 1.88 ± 003^a,b mm
dead (Xenopus laevis embryos; VitC alone, 100 μM, no ethanol): 1
severity of alcohol-induced microencephaly and growth retardation (Xenopus laevis embryos; pretreating embryos with 100 μM vitamin C): significantly reduced the severity
expression of NCAM and Pax6 (RT-PCR) ([1]; ethanol treated embryos, vitamin C pretreatment): restored significantly
forebrain areas, histology at stage 45 ([2]; vitamin C 2 hours before addition of alcohol): significant restoration of the forebrain areas
width of the canal in diencephalon areas ([2]; vitamin C concomitantly with alcohol): could not narrow down the canal
ethanol-induced hydrogen peroxide level [3]: suppressed

Nc1nc2ncc(CNc3ccc(C(=O)N[C@@H](CCC(=O)O)C(=O)O)cc3)nc2c(=O)[nH]1 [folic acid]
amount of ethanol-mediated oxidative stress (rats): mitigated

CC1=C(/C=C/C(C)=C/C=C/C(C)=C/C=C/C=C(C)/C=C/C=C(C)/C=C/C2=C(C)CCCC2(C)C)C(C)(C)CCC1 [β-carotene]
protection of embryonic hippocampal cultures [4]: protected

Vitamin E
protection of embryonic hippocampal cultures [4]: protected
